Test [1] relates to B16F10 mouse melanoma cells. Kind of test: B16F10 IFNγ-induced cellular growth inhibition assay. Format: cell-based. Conditions: Mus musculus, B16-F10, 33 μM compound. The protocol: B16F10 mouse melanoma cells (ATCC Cat ^#CRL-6475, Manassas, Va.) were seeded at a density of 500 cells per well in a 384-well clear bottom plate (Corning Cat^# 3765, Corning, N.Y.) in 25 μL total volume of DMEM+10% FBS (Sigma Cat ^#D6429 and Sigma Cat ^#F4135, St. Louis, Mo.). Cells were allowed to adhere overnight at 37° C.+5% CO2. On the following day, 12.5 μL of mouse IFNγ (RD systems Cat485-MI/CF, Minneapolis, Minn.) was added to half of the plate (columns 13-24) at a concentration of 2 ng/mL for a final assay concentration of 0.5 ng/mL of IFNγ. Media only (12.5 μL of DMEM+10% FBS) was added to the remainder of the plate (columns 1-12). Next, compounds resuspended in DMSO (Sigma Cat ^#D2650) at 100 mM were diluted in semi-log dilutions in DMSO ranging from 100 mM to 0.001 mM and DMSO only controls were included. The compound/DMSO dilutions were further diluted 1:250 in DMEM+10% FBS, and 12.5 μL of these dilutions were added in triplicates to cells of both treatment arms (with and without IFNγ). Final compound concentrations ranged from 100 μM to 0.001 μM with a final DMSO concentration of 0.1%. Compounds were only dosed in the inner 240 wells, avoiding the outer 2-well perimeter of the plate to minimize edge effects. Finally, the plate was loaded into an IncuCyte® S3 Live Cell Analysis System (Essen Bioscience-Sartorius, Ann Arbor, Mich.) maintained in a 37° C.+5% CO2 incubator, allowed to equilibrate for 2 hours, and imaged every 6 hours for 5 days. Confluence over time for compound dilutions in the presence and absence of IFNγ was measured. Growth inhibition values were obtained when the “DMSO/no IFNγ” control reached confluence >95%. At these time points, the percent growth inhibition of each compound at the indicated concentration was calculated relative to the “DMSO/with IFNγ” control.

Test [2] concerns the target T1, His tagged PTPN2 (TC45) protein (Homo sapiens, UniProt P17706).
T1 construct: made in house
T1 sequence (P17706 with tags, fused parts or gaps isoform P17706-2): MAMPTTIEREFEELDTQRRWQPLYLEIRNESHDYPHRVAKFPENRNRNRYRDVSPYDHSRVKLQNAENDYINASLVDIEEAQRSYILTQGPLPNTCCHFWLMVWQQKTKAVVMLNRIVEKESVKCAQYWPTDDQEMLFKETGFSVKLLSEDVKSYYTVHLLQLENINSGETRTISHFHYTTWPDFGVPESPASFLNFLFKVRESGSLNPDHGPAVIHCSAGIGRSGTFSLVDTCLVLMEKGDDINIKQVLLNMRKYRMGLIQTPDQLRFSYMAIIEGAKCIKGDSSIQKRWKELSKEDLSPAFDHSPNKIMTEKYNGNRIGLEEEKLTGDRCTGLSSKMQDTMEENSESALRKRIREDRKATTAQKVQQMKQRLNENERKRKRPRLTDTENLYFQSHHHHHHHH
Kind of test: Mobility shift assay (MSA) for potency of PTPN2 inhibitors. It is filed as biochemical. Conditions: read-out: PTPN2 MSA IC50. The method in brief: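 IC50 values were derived from % inhibition of substrate conversion, measured by microfluidic mobility shift (ex 488/em 530) after quenching. The fluorescent phosphotyrosine insulin-receptor peptide ([…]) reacted for 10 min at room temperature with 0.5 nM His-tagged TC45 PTPN2 that had been preincubated 10 min with compound (12 points, 1:3). Buffer was HEPES pH 7.5 with EGTA, EDTA, Tween 20 and DTT.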

Where [3] appears, read: +0.5 ng/mL IFNγ, relative to DMSO control, read-out: % B16F10 growth inhibition (+0.5 ng/mL IFNγ) @ 33 μM.
Setting [4] is: no IFNγ, read-out: % B16F10 growth inhibition (no IFNγ) @ 33 μM.

Read-outs that look alike come from different tables or passages of the source.

As to `CC(C)(C)CCNc1ccc2cc(O)c(N3CC(=O)NS3(=O)=O)c(F)c2c1` [Compound 116, 5-{7-[(3,3-dimethylbutyl)amino]-1-fluoro-3-hydroxynaphthalen-2-yl}-1λ^6,2,5-thiadiazolidine-1,1,3-trione], the inhibition at 33 µM is over 90% in test [1] (setting [3]) and under 25% in test [1] (setting [4]). Further, in test [2], the IC50 (commonly the point on the concentration scale where inhibition reaches its midpoint) was 1 to 10 nM.

Regarding `Cc1nn(C)cc1S(=O)(=O)N1CC=C(c2ccc3cc(O)c(N4CC(=O)NS4(=O)=O)c(F)c3c2)C1` [Compound 310, 5-{7-[1-(1,3-dimethyl-1H-pyrazole-4-sulfonyl)-2,5-dihydro-1H-pyrrol-3-yl]-1-fluoro-3-hydroxynaphthalen-2-yl}-1λ^6,2,5-thiadiazolidine-1,1,3-trione], the inhibition at 33 µM in test [1] (setting [3]) is over 90%; in test [1] (setting [4]), under 25%. The 50% inhibitory concentration (IC50) in test [2] is under 1 nM.

As for `O=C1CN(c2c(O)cc3ccc(CCC4CC4)cc3c2F)S(=O)(=O)N1` [Compound 209, 5-[7-(2-cyclopropylethyl)-1-fluoro-3-hydroxynaphthalen-2-yl]-1λ^6,2,5-thiadiazolidine-1,1,3-trione], the results for the inhibition at 33 µM in test [1] (setting [3]) and in test [1] (setting [4]) were 60 to 90% and under 25%, respectively. Besides, the IC50 in test [2] is 1 to 10 nM.

For `CCS(=O)(=O)N1CC=C(c2ccc3cc(O)c(N4CC(=O)NS4(=O)=O)c(F)c3c2)C1` [Compound 295, 5-{7-[1-(ethanesulfonyl)-2,5-dihydro-1H-pyrrol-3-yl]-1-fluoro-3-hydroxynaphthalen-2-yl}-1λ^6,2,5-thiadiazolidine-1,1,3-trione], the inhibition at 33 µM was over 90% in test [1] (setting [3]) and under 25% in test [1] (setting [4]). Besides, the IC50 in test [2] is under 1 nM.

For the compound `O=C1CN(c2c(O)cc3ccc(OCCC(F)(F)F)cc3c2F)S(=O)(=O)N1` [Compound 180, 5-[1-fluoro-3-hydroxy-7-(3,3,3-trifluoropropoxy)naphthalen-2-yl]-1λ^6,2,5-thiadiazolidine-1,1,3-trione], the inhibition at 33 µM in test [1] (setting [3]) was 60 to 90%; in test [1] (setting [4]), under 25%. In addition, the IC50 in test [2] fell in the range of 1 to 10 nM.

On to `O=C1CN(c2c(O)cc3ccc(CC4CN(S(=O)(=O)C5CC5)C4)cc3c2F)S(=O)(=O)N1` [Compound 256, 5-(7-{[1-(cyclopropanesulfonyl)azetidin-3-yl]methyl}-1-fluoro-3-hydroxynaphthalen-2-yl)-1λ^6,2,5-thiadiazolidine-1,1,3-trione], for which the inhibition at 33 µM in test [1] (setting [3]) is 25 to 59%; in test [1] (setting [4]) it was under 25%. The IC50 in test [2] is under 1 nM.

`COc1ccc2c(F)c(O)c(N3CC(=O)NS3(=O)=O)c(F)c2c1` [Compound 117, 5-(1,4-difluoro-3-hydroxy-7-methoxynaphthalen-2-yl)-1λ^6,2,5-thiadiazolidine-1,1,3-trione]: the inhibition at 33 µM in test [1] (setting [3]) was 25 to 59%; in test [1] (setting [4]), under 25%. The IC50 in test [2] is 1 to 10 nM.

Turning to `NCCOc1ccc2cc(O)c(N3CC(=O)NS3(=O)=O)c(F)c2c1` [Compound 309, 5-[7-(2-aminoethoxy)-1-fluoro-3-hydroxynaphthalen-2-yl]-1λ^6,2,5-thiadiazolidine-1,1,3-trione], the values for the inhibition at 33 µM in test [1] (setting [3]) and in test [1] (setting [4]) were 60 to 90% and under 25%, respectively. The half-maximal inhibitory concentration (IC50) in test [2] lay within 1 to 10 nM.

Consider `N#CC1(CNc2ccc3cc(O)c(N4CC(=O)NS4(=O)=O)c(F)c3c2)CC1` [Compound 181, 1-({[8-fluoro-6-hydroxy-7-(1,1,4-trioxo-1λ^6,2,5-thiadiazolidin-2-yl)naphthalen-2-yl]amino}methyl)cyclopropane-1-carbonitrile], for which the results for the inhibition at 33 µM in test [1] (setting [3]) and in test [1] (setting [4]) were 60 to 90% and under 25%, respectively. The concentration for half-maximal inhibition (IC50) in test [2] fell in the range of 1 to 10 nM.

As for `O=C1CN(c2c(O)cc3ccc(C4CNC4)cc3c2F)S(=O)(=O)N1` [Compound 226, 5-[7-(azetidin-3-yl)-1-fluoro-3-hydroxynaphthalen-2-yl]-1λ^6,2,5-thiadiazolidine-1,1,3-trione], the inhibition at 33 µM in test [1] (setting [3]) is 60 to 90%; in test [1] (setting [4]), under 25%. The 50% inhibitory concentration (IC50) in test [2] is 1 to 10 nM.

Regarding `O=C1CN(c2c(O)cc3ccc(NCCC(F)(F)F)cc3c2F)S(=O)(=O)N1` [Compound 169, 5-{1-fluoro-3-hydroxy-7-[(3,3,3-trifluoropropyl)amino]naphthalen-2-yl}-1λ^6,2,5-thiadiazolidine-1,1,3-trione], the values for the inhibition at 33 µM in test [1] (setting [3]) and in test [1] (setting [4]) were over 90% and under 25%, respectively. Further, the IC50 in test [2] is 1 to 10 nM.

Consider `O=C1CN(c2c(O)cc3ccc(C4=CCN(CC5CC5)C4)cc3c2F)S(=O)(=O)N1` [Compound 242, 5-{7-[1-(cyclopropylmethyl)-2,5-dihydro-1H-pyrrol-3-yl]-1-fluoro-3-hydroxynaphthalen-2-yl}-1λ^6,2,5-thiadiazolidine-1,1,3-trione], for which the values for the inhibition at 33 µM in test [1] (setting [3]) and in test [1] (setting [4]) were 60 to 90% and under 25%, respectively. For the same compound, in test [2], the half-maximal inhibitory concentration (IC50) lay in the range of 1 to 10 nM.

For the compound `O=C1CN(c2c(O)cc3ccc(OCC4CCOCC4)cc3c2F)S(=O)(=O)N1` [Compound 273, 5-{1-fluoro-3-hydroxy-7-[(oxan-4-yl)methoxy]naphthalen-2-yl}-1λ^6,2,5-thiadiazolidine-1,1,3-trione], the results for the inhibition at 33 µM in test [1] (setting [3]) and in test [1] (setting [4]) were 60 to 90% and under 25%, respectively. For the same compound, the IC50 in test [2] is 1 to 10 nM.

Take `N#CCCCOc1ccc2cc(O)c(N3CC(=O)NS3(=O)=O)c(F)c2c1` [Compound 129, 4-{[8-fluoro-6-hydroxy-7-(1,1,4-trioxo-1λ^6,2,5-thiadiazolidin-2-yl)naphthalen-2-yl]oxy}butanenitrile]: the values for the inhibition at 33 µM in test [1] (setting [3]) and in test [1] (setting [4]) were over 90% and under 25%, respectively. Moreover, the IC50 in test [2] was under 1 nM.

Consider `CNCC(C)(C)CCOc1ccc2cc(O)c(N3CC(=O)NS3(=O)=O)c(F)c2c1` [Compound 163, 5-{7-[3,3-dimethyl-4-(methylamino)butoxy]-1-fluoro-3-hydroxynaphthalen-2-yl}-1λ^6,2,5-thiadiazolidine-1,1,3-trione], for which the inhibition at 33 µM is over 90% in test [1] (setting [3]) and under 25% in test [1] (setting [4]). Further, the IC50 in test [2] was under 1 nM.

Consider `O=C1CN(c2c(O)cc3ccc(OCCF)cc3c2F)S(=O)(=O)N1` [Compound 198, 5-[1-fluoro-7-(2-fluoroethoxy)-3-hydroxynaphthalen-2-yl]-1λ^6,2,5-thiadiazolidine-1,1,3-trione], for which the results for the inhibition at 33 µM in test [1] (setting [3]) and in test [1] (setting [4]) were 60 to 90% and under 25%, respectively. In addition, the IC50 in test [2] fell in the range of 1 to 10 nM.

Regarding `O=C1CN(c2c(O)cc3ccc(OCCC4CC4)cc3c2F)S(=O)(=O)N1` [Compound 211, 5-[7-(2-cyclopropylethoxy)-1-fluoro-3-hydroxynaphthalen-2-yl]-1λ^6,2,5-thiadiazolidine-1,1,3-trione], the inhibition at 33 µM in test [1] (setting [3]) was 60 to 90%; in test [1] (setting [4]), under 25%. The IC50 in test [2] is under 1 nM.

On to `O=C1CN(c2c(O)cc3ccc(-c4cnn(CC5CC5)c4)cc3c2F)S(=O)(=O)N1` [Compound 132, 5-{7-[1-(cyclopropylmethyl)-1H-pyrazol-4-yl]-1-fluoro-3-hydroxynaphthalen-2-yl}-1λ^6,2,5-thiadiazolidine-1,1,3-trione], for which the values for the inhibition at 33 µM in test [1] (setting [3]) and in test [1] (setting [4]) were 60 to 90% and under 25%, respectively. The half-maximal inhibitory concentration (IC50) in test [2] was under 1 nM.
